In patent US12227488B2, “Small molecule degraders of Helios and methods of use” (DANA-FARBER CANCER INSTITUTE, INC., priority 2018, dated 2025):

Columns and labels:
GSPT1 = GSPT1 (Homo sapiens, UniProt P15170+Q96SW2); assay: Cellular degradation assay, eGFP-GSPT1 fusion with mCherry reporter in Flp-In 293 cells; format: cell-based; design: expressed in transfected cells; host or cells: Flp-In 293; conditions: 5 h incubation, n=1
In short: (§1)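 DC50,5 h derived by variable-slope nonlinear fit of the per-well ratio of GFP-positive to mCherry-positive cells, imaged after 5 h compound exposure at 0.5% DMSO.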

IKZF1 = molecular target: T1, IKZF1 (Homo sapiens, UniProt Q13422); assay: Cellular degradation assay, eGFP-IKZF1Δ fusion with mCherry reporter in Flp-In 293 cells; format: cell-based; conditions: 5 h incubation, n=1
T1 construct: expressed in transfected cells; host or cells: Flp-In 293
In short: as §1

SALL4 ZNF1-2 = molecular target: T2, SALL4 ZNF1-2 (Homo sapiens, UniProt Q96SW2+Q9UJQ4); assay: Cellular degradation assay, eGFP-SALL4 ZnF1-2 fusion with mCherry reporter in Flp-In 293 cells; format: cell-based; conditions: 5 h incubation, n=1
T2 construct: IKZF1Δ, IKZF2Δ, GSPT1 and SALL4 ZnF1-2 were subcloned; expressed in transfected cells; host or cells: Flp-In 293
Procedure: IKZF1Δ, IKZF2Δ, GSPT1 and SALL4 ZnF1-2 were subcloned into mammalian pcDNA5/FRT Vector (Ampicillin and Hygromycin B resistant) modified to contain MCS-eGFP-P2A-mCherry. Stable cell lines expressing eGFP-protein fusion and mCherry reporter were generated using Flp-In™ 293 system. Plasmid (0.3 μg) and pOG44 (4.7 μg) DNA were preincubated in 100 μL of Opti-MEM® I (Gibco®, Life Technologies™) media containing 0.05 mg/mL Lipofectamine® 2000 (Invitrogen™) for 20 min and added to Flp-In™ 293 cells containing 1.9 ml of DMEM media (Gibco®, Life Technologies™) per well in a 6-well plate format (Falcon, 353046). Cells were propagated after 48 h and transferred into a 10 cm^2 plate (Corning, 430165) in DMEM media containing 50 μg/mL of Hygromycin B (REF 10687010, Invitrogen™) as a selection marker. Following 2-3 passage cycle, FACS (FACSAria™ II, BD) was used to enrich for cells expressing eGFP and mCherry. Cells stably expressing the IKZF1Δ, IKZF2Δ, GSPT1 or SALL4 Znf1-2 GFP fusions with mCherry reporter were seeded at 30-50% confluency in 384-well plates with 50 μL FluoroBrite™ DMEM media (Thermo Fisher Scientific, A18967) containing 10% FBS per well a day before compound treatment. Compound titrations were dispensed using a D300e Digital Dispenser (HP), normalized to 0.5% DMSO, and incubated with cells for 5 hours. The assay plate was imaged immediately using an Acumen® High Content Imager (TTP Labtech) with 488 nm and 561 nm lasers in […] grid per well format.
The resulting images were analyzed using CellProfiler™. A series of image analysis steps (‘image analysis pipeline’) was constructed. First, the red and green channels were aligned and cropped to target the middle of each well (to avoid analysis of heavily clumped cells at the edges), and a background illumination function was calculated for both red and green channels of each well individually and subtracted to correct for illumination variations across the 384-well plate from various sources of error. An additional step was then applied to the green channel to suppress the analysis of large auto fluorescent artifacts and enhance the analysis of cell specific fluorescence by way of selecting for objects under a given size, 30 A.U., and with a given shape, speckles. mCherry-positive cells were then identified in the red channel filtering for objects between 8-60 pixels in diameter and using intensity to distinguish between clumped objects. The green channel was then segmented into GFP positive and negative areas and objects were labeled as GFP positive if at least 40% of it overlapped with a GFP positive area. The fraction of GFP-positive cells/mCherry-positive cells in each well was then calculated, and the green and red images were rescaled for visualization.

CRBN and Helios (IKZF2) = molecular target: T3, CRBN and Helios (IKZF2) (Homo sapiens, UniProt Q96SW2+Q9UKS7); assay: TR-FRET dimerization assay (CRBN-IKZF2 ternary complex formation); format: binding; conditions: n=1
T3 construct: His (N); Strep (N)
In short: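 Compound-induced IKZF2 recruitment to CRBN was read as the 520/490 nm TR-FRET ratio after 15 min at rt. The mix held biotinylated IKZF2, BODIPY-labeled CRBN bound to DDB1 lacking the BPB propeller, tracer Tb-streptavidin and compound titrations; n=1, from ≥3 technical replicates per well.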

IKZF2 = assay: Cellular degradation assay, eGFP-IKZF2Δ fusion with mCherry reporter in Flp-In 293 cells; format: cell-based; conditions: 5 h incubation, n=1
In short: as §1

[1] = compound concentration 2.00E−05
[2] = compound concentration 2.00E−06
[3] = compound concentration 2.00E−07
[4] = compound concentration 6.6667E−05
[5] = compound concentration 6.6667E−06
[6] = compound concentration 6.6667E−07 (667 nM)

T2 sequence (Q9UJQ4 378-438 limits assumed): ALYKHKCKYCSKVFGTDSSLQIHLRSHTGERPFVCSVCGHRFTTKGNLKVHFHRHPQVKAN
T2 sequence (Q96SW2 whole entry, the tested form may be a part): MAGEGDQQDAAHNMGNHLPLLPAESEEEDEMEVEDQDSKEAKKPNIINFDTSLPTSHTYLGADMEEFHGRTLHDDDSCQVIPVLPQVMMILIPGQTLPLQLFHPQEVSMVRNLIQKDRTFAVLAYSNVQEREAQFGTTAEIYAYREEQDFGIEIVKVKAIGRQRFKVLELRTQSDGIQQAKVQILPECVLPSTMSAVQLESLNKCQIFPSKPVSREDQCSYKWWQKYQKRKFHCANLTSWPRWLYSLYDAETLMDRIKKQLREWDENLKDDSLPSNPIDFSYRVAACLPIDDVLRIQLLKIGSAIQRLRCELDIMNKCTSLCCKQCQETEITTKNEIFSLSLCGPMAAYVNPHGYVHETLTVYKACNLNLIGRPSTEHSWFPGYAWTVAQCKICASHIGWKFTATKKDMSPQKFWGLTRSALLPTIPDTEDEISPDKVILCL
T2 sequence (Q16531 whole entry partner, the tested form may be a part): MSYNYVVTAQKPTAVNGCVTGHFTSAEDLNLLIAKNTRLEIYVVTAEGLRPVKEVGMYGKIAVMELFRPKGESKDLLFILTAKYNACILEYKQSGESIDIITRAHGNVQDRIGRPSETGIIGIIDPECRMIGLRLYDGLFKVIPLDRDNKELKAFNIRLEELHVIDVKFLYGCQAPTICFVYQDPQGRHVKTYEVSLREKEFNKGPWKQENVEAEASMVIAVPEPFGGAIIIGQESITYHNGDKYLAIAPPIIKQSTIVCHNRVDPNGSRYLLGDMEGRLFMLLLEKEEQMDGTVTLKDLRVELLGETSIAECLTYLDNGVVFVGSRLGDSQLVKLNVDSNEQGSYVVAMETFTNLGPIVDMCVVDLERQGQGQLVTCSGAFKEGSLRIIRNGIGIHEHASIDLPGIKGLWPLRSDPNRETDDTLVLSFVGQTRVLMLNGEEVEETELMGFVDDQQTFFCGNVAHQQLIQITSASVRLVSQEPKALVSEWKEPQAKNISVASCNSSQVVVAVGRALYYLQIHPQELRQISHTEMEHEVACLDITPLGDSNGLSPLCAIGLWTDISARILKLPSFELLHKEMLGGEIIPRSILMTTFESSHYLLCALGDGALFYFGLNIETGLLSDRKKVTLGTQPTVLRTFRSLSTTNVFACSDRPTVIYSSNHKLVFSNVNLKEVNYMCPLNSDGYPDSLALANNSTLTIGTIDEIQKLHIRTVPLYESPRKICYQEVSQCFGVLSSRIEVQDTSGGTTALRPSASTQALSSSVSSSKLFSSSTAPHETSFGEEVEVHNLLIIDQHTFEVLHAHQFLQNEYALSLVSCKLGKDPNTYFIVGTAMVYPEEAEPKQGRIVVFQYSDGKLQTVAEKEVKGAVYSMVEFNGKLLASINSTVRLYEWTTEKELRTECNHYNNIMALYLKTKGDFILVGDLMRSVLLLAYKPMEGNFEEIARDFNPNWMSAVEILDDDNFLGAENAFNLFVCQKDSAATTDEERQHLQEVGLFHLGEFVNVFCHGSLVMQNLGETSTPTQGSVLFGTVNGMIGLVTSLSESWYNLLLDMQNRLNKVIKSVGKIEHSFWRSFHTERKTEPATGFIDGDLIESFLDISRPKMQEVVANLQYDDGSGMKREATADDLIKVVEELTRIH
Sequence of GSPT1 (P15170 whole entry, the tested form may be a part): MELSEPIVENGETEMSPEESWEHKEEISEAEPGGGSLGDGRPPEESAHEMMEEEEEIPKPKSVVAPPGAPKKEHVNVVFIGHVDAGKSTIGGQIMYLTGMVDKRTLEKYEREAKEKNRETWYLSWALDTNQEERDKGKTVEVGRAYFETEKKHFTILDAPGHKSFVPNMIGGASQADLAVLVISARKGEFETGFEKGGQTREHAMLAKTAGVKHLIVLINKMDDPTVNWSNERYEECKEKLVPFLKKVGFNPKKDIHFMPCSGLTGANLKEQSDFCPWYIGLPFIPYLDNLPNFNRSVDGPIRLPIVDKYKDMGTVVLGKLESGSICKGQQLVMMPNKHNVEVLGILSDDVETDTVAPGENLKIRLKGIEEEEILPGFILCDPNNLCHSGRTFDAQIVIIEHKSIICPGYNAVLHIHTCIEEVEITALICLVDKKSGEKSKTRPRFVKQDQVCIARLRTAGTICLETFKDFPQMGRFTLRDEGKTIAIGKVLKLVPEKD
Sequence of GSPT1 (Q96SW2 whole entry, the tested form may be a part): as the sequence (Q96SW2 whole entry, the tested form may be a part) above
Sequence of GSPT1 (Q16531 whole entry partner, the tested form may be a part): as the sequence (Q16531 whole entry partner, the tested form may be a part) above
T1 sequence (Q13422 83-213 isoform Q13422-7 limits assumed): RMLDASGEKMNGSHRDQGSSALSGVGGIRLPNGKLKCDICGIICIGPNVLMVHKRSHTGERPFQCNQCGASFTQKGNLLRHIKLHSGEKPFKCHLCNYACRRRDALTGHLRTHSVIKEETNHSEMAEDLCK
T1 sequence (Q96SW2 whole entry partner, the tested form may be a part): as the sequence (Q96SW2 whole entry, the tested form may be a part) above
T1 sequence (Q16531 2-1140 partner limits assumed): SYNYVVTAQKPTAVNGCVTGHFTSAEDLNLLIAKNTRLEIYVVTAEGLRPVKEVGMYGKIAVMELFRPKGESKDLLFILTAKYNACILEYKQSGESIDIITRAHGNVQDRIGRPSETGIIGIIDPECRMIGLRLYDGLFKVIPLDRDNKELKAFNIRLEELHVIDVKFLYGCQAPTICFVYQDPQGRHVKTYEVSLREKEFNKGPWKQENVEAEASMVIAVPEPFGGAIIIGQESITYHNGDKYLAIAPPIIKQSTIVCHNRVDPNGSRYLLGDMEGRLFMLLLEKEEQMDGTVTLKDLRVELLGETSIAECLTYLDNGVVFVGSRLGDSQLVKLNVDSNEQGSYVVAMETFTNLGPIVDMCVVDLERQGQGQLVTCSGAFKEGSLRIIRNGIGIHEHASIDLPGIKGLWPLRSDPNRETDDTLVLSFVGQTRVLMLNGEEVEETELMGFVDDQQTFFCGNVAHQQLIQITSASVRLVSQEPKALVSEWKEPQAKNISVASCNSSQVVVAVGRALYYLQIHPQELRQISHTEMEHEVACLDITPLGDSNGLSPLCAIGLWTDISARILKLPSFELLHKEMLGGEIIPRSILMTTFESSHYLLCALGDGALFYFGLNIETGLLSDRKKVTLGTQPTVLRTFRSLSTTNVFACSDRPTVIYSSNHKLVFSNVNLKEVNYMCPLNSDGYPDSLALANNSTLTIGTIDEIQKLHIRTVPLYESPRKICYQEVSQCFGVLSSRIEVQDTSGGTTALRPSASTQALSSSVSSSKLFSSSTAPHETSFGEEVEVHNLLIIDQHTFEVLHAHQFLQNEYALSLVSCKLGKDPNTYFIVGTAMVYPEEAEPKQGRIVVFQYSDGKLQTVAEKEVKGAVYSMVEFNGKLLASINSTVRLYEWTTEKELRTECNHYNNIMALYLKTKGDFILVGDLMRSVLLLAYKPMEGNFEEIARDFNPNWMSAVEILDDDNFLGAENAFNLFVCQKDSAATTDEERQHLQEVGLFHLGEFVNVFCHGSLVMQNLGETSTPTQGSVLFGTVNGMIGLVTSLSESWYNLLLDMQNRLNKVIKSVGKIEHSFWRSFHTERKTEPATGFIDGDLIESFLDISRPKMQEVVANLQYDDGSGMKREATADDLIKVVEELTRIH
T3 sequence (Q96SW2 whole entry): as the sequence (Q96SW2 whole entry, the tested form may be a part) above
T3 sequence (Q9UKS7 whole entry): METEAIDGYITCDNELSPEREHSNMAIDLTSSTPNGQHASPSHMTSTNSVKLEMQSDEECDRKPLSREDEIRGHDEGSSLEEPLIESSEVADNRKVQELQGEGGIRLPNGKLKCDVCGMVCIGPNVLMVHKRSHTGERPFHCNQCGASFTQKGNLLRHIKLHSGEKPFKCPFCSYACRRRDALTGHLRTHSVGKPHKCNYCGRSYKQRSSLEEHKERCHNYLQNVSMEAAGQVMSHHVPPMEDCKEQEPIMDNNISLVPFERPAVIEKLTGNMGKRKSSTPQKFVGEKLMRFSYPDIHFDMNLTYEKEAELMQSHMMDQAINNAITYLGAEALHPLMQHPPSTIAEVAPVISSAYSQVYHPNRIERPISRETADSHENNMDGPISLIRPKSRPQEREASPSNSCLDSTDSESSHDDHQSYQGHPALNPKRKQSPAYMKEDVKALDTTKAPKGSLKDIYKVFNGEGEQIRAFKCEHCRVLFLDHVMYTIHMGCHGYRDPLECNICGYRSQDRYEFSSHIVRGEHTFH

| Compound | GSPT1 GFP/RFP Relative Abundance (GSPT1; [1]) | GSPT1 GFP/RFP Relative Abundance (GSPT1; [2]) | GSPT1 GFP/RFP Relative Abundance (GSPT1; [3]) | IKZF1 GFP/RFP Relative Abundance (IKZF1; [1]) | IKZF1 GFP/RFP Relative Abundance (IKZF1; [2]) | IKZF1 GFP/RFP Relative Abundance (IKZF1; [3]) | SALL4 ZNF1-2 GFP/RFP Relative Abundance (SALL4 ZNF1-2; [1]) | SALL4 ZNF1-2 GFP/RFP Relative Abundance (SALL4 ZNF1-2; [2]) | SALL4 ZNF1-2 GFP/RFP Relative Abundance (SALL4 ZNF1-2; [3]) | TR-FRET-IKZF2 (Normalized to CC-885) (CRBN and Helios (IKZF2); [4]) | TR-FRET-IKZF2 (Normalized to CC-885) (CRBN and Helios (IKZF2); [5]) | TR-FRET-IKZF2 (Normalized to CC-885) (CRBN and Helios (IKZF2); [6]) | IKZF2 GFP/RFP Relative Abundance (IKZF2; [1]) | IKZF2 GFP/RFP Relative Abundance (IKZF2; [2]) | IKZF2 GFP/RFP Relative Abundance (IKZF2; [3]) |
| --- | --- | --- | --- | --- | --- | --- | --- | --- | --- | --- | --- | --- | --- | --- | --- |
| O=C(O)CCCCNC1=CC(=O)N(C2CCC(=O)NC2=O)C1=O (stereo not drawn) [Compound 22, 5-((1-(2,6-dioxopiperidin-3-yl)-2,5-dioxo-2,5-dihydro-1H-pyrrol-3-yl)amino)pentanoic acid] | 1.058 | 0.883 | 0.745 | 0.984 | 1.028 | 0.939 | 0.953 | 0.962 | 1.044 | 0.055 | 0.032 | 0.018 | 1.001 | 0.982 | 0.935 |
| CN(C)C(=O)Cc1ccc(NC2=CC(=O)N(C3CCC(=O)NC3=O)C2=O)cc1 (stereo not drawn) [Compound 36, 2-(4-((1-(2,6-dioxopiperidin-3-yl)-2,5-dioxo-2,5-dihydro-1H-pyrrol-3-yl)amino)phenyl)-N,N-dimethylacetamide] | 1.112 | 1.009 | 1.006 | 0.687 | 0.796 | 0.860 | 1.000 | 1.033 | 0.974 | 0.183 | 0.148 | 0.115 | 0.943 | 1.027 | 1.049 |
| Cc1ccc(NC(=O)NCc2ccccc2NC2=CC(=O)N(C3CCC(=O)NC3=O)C2=O)cc1Cl (stereo not drawn) [Compound 45, 1-(3-chloro-4-methylphenyl)-3-(2-((1-(2,6-dioxopiperidin-3-yl)-2,5-dioxo-2,5-dihydro-1H-pyrrol-3-yl)amino)benzyl)urea] | 0.476 | 0.921 | 1.093 | 0.957 | 1.027 | 1.060 | 1.059 | 0.993 | 0.948 | 0.079 | 0.059 | 0.051 | 1.015 | 1.022 | 1.022 |
| O=C1CCC(N2C(=O)C=C(Nc3nccs3)C2=O)C(=O)N1 (stereo not drawn) [Compound 19, 3-(2,5-dioxo-3-(thiazol-2-ylamino)-2,5-dihydro-1H-pyrrol-1-yl)piperidine-2,6-dione] | 1.023 | 0.946 | 0.953 | 0.216 | 0.818 | 0.110 | 1.010 | 1.012 | 0.597 | 0.217 | 0.041 | 0.057 | 0.653 | 0.980 | 0.991 |
| CN(C)C(=O)c1cccc(NC2=CC(=O)N(C3CCC(=O)NC3=O)C2=O)c1 (stereo not drawn) [Compound 33, 3-((1-(2,6-dioxopiperidin-3-yl)-2,5-dioxo-2,5-dihydro-1H-pyrrol-3-yl)amino)-N,N-dimethylbenzamide] | 0.944 | 0.952 | 0.956 | 0.339 | 0.413 | 0.445 | 0.783 | 0.813 | 0.860 | 0.584 | 0.491 | 0.452 | 0.372 | 0.521 | 0.570 |
| Cc1ccc(NC2=CC(=O)N(C3CCC(=O)NC3=O)C2=O)cc1Cl (stereo not drawn) [Compound 3, 3-(3-((3-chloro-4-methylphenyl)amino)-2,5-dioxo-2,5-dihydro-1H-pyrrol-1-yl)piperidine-2,6-dione] | 1.204 | 1.006 | 1.190 | 0.242 | 0.370 | 0.349 | 0.914 | 0.884 | 0.879 | 0.357 | 0.267 | 0.253 | 1.032 | 0.973 | 0.979 |
| CN(C1=CC(=O)N(C2CCC(=O)NC2=O)C1=O)c1ccccc1 (stereo not drawn) [Compound 28, 3-(3-(methyl(phenyl)amino)-2,5-dioxo-2,5-dihydro-1H-pyrrol-1-yl)piperidine-2,6-dione] | 1.001 | 0.917 | 0.805 | 0.978 | 0.996 | 1.029 | 0.969 | 0.936 | 0.946 | 0.072 | 0.050 | 0.053 | 1.006 | 1.011 | 1.064 |
| Cc1ccc(NC(=O)NCCNC2=CC(=O)N(C3CCC(=O)NC3=O)C2=O)cc1Cl (stereo not drawn) [Compound 41, 1-(3-chloro-4-methylphenyl)-3-(2-((1-(2,6-dioxopiperidin-3-yl)-2,5-dioxo-2,5-dihydro-1H-pyrrol-3-yl)amino)ethyl)urea] | 0.038 | 0.062 | 0.077 | 0.638 | 0.909 | 1.003 | 1.020 | 0.994 | 1.004 | 0.170 | 0.126 | 0.104 | 0.969 | 1.027 | 1.040 |
